{"source": "patent US20100249184A1", "about": "“INDUCTION AND/OR MAINTENANCE OF TUMOR DORMANCY BY DISRUPTION OF UROKINASE PLASMINOGEN ACTIVATOR RECEPTOR-INTEGRIN INTERACTION” (MOUNT SINAI SCHOOL OF MEDICINE, priority 2007, published 2010)", "key": {"[1]": {"system": "T-HEp3 cells", "assay": "P-ERK/ERK Western blotting after peptide treatment", "type": "cell-based, human", "text": "FIGS. 6A-E show ERK activation and growth in vivo. In FIG. 6A, HEK293 and D-Hep3 cells transfected with uPAR^wt produces stronger activation of ERK than cells transfected with uPAR^S245A or with vector (top and middle panels); HEK293, and D-HEp3 cells, transiently transfected with pcDNA3.1 vector, or with an expression construct for uPAR^wt or uPAR^S245A lysed 48 hrs later and analyzed by Western blotting for phospho-ERK (FIG. 6A, top panels) and ERK 1/2 (FIG. 6A, middle panels) with specific antibodies. The bands were scanned with NIH Image and plotted. The ratio of phospho-ERK to ERK was calculated and expressed as a fraction of the ratio of pcDNA3.1 transfected cells. In FIG. 6A (bottom panels), uPAR^wt and uPAR^S245A expression was determined by Western blotting. […] D-HEp3 cells transfected with vector, or uPAR^wt or uPAR^S245A were detached with EDTA 36 hrs after transfection and 7×10^5 cells in 30 μl PBS were inoculated onto chorioallantoic membranes (“CAMs”) of 10-day old chick embryos. Each sample was inoculated onto 4 CAMs. The CAMs were excised 4 days later and the number of tumor cells was determined as in the Examples. The bars show mean and standard deviation. Paired t-test vector/uPAR^S245A p=0.76, vector/uPAR^wt p=0.0005, uPAR^S245/uPAR^wt p=0.0002. Inset: uPAR expression detected by Western blot with R2 antibody. In FIG. 6C, peptide 240-248, but not peptide 17-24, down regulates P-ERK level. T-HEp3 cells were serum-starved and treated in serum-free medium with 25 μM of peptides 240-248 and 17-24 for 45 min and 3 hrs. The cells were lysed and the lysates were analyzed for P-ERK (FIG. 6C, upper panel) and total ERK (FIG. 6C, lower panel) by Western blotting. FIG. 6D is a graph showing that S245A mutant peptide has no effect on ERK activation. T-HEp3 cells were treated with 5, 20, and 40 μM peptides 240-248 ([…]), 17-24 (▪), and S245A (▾) for 1 hr. The cells were processed as in FIG. 6C, except that the bands were scanned by NIH Image the P-ERK/ERK ratio was calculated. […] Sub-confluent T-ELK:GFP cells grown in 48-well plate and serum-starved overnight were incubated with the uPAR peptides 240-248 at 5 and 25 μM and with 17-24 peptide at 25 μM for 40 hrs at 37° C. in serum-free medium. The cells were detached and analyzed for GFP in FACS Canto using FACSDiva software. The numbers represent GFP-positive cells as percent of total. The dose-response for peptide 240-248 and highest concentration of peptides 17-24 and S245A were repeated two additional times with similar results.\nTo test the effect of uPAR/integrin inhibiting peptides on ERK activity, T-HEp3 cells transfected with two plasmids that report through GFP level on the state of ERK activation and designated T-ELK (Aguirre-Ghiso et al., Cancer Res. 63:1684-1695 (2003), which is hereby incorporated by reference in its entirety) were plated in 48-well plates, serum-starved overnight, and treated (in duplicates) with 5 and 25 μM of uPAR-derived synthetic peptides (240-248) or 25 μM (17-24) in DMEM for 42 hrs. Untreated cells served as positive control and cells not expressing GFP as negative control. The cells were detached and analyzed for GFP by FACS analysis using FACS Canto (Becton Dickinson, Calif.) and FACSDiva software. Alternatively, T-HEp3 cells, serum-starved overnight were incubated in serum-free medium with 5, 20, and 40 μM of uPAR-derived synthetic peptide 240-248, 17-24, or S245A for 1 hr or with 25 μM peptide 240-248 and 17-24 for 10 min, 45 min, and 3 hrs at 37° C. The cells were lysed in RIPA buffer and processed as described above. Concentration dependence of P-ERK inhibition was analyzed by scanning P-ERK and ERK bands with NIH-Image and expressing their ratios as % of the ratio in untreated control (T-HEp3) cells."}, "[2]": {"target": "T1, α5β1-integrin/uPAR complex (Homo sapiens, UniProt P05556+P08648)", "T1 construct": "endogenous in cells; host or cells: T-HEp3 (human epidermoid carcinoma) cell lysate", "T1 sequence (P08648 42-894 limits assumed)": "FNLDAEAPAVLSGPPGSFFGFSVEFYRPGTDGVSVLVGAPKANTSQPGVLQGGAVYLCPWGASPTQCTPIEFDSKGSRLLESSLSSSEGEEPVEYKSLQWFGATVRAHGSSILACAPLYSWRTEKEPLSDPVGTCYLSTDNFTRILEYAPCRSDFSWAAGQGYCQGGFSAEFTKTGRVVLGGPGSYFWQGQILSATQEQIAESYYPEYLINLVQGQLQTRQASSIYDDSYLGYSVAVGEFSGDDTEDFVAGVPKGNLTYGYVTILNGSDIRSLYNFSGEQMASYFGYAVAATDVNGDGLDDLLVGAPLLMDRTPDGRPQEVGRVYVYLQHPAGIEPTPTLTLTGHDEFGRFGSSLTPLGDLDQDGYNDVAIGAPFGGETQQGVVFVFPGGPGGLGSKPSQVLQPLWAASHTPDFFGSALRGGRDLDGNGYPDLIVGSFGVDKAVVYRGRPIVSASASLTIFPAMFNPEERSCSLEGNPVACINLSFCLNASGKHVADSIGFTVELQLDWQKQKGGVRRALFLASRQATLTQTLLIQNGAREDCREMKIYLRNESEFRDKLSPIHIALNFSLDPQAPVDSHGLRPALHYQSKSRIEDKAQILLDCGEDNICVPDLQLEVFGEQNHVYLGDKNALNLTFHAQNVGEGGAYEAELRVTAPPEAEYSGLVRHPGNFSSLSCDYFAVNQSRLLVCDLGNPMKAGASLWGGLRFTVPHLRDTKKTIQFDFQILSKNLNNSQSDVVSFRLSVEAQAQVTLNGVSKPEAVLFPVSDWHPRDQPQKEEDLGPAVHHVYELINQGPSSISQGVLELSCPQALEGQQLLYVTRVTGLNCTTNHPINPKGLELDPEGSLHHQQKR", "T1 sequence (P08648 895-1049 limits assumed)": "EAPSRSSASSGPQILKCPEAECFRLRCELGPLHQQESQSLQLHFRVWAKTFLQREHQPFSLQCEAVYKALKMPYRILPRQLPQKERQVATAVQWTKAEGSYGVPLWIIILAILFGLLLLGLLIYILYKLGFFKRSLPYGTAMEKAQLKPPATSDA", "T1 sequence (P05556 21-798)": "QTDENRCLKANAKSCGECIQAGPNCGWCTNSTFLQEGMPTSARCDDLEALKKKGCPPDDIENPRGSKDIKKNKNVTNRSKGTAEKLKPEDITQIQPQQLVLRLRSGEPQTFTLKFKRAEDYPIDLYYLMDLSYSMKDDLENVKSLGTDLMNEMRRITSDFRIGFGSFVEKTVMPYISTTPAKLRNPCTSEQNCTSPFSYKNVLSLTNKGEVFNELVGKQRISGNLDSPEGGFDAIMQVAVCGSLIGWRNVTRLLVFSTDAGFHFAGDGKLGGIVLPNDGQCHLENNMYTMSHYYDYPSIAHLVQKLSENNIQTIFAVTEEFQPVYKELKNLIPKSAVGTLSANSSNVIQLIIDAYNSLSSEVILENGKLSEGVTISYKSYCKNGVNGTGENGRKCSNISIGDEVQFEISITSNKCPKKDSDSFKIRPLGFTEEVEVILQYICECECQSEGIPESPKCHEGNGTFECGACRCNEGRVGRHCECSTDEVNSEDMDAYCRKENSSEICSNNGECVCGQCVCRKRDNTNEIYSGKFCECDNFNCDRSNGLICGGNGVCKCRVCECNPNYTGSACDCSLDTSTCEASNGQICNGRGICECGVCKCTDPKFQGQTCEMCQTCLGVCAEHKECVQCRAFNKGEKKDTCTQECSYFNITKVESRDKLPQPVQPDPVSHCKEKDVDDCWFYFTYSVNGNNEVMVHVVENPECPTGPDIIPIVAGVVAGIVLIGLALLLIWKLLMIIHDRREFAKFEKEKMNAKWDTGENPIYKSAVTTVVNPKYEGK", "assay": "Disruption of preformed uPAR/α5β1-integrin complex (co-immunoprecipitation)", "type": "biochemical", "conditions": "cell lysates incubated with 20 μM peptide, 20 min at 4° C., pull-down with anti-α5β1 (HA5)", "protocol": "FIGS. 5A-B show the physical interaction between uPAR and α5β1-integrin. […] D-HEp3 cells were transfected with vector (pcDNA3.1) alone or with constructs expressing uPAR^wt or uPAR^S245A and after 48 hrs the cells were surface biotinylated and lysed as described in the Examples. Half of each lysate (0.8 mg of protein) was immunoprecipitated with 5 μg monoclonal anti-uPAR(R3) antibody and half with 5 μg monoclonal anti-α5β1-integrin (HA5) antibody. Isotype-matched IgG served as negative control. The immunoprecipitates were separated on an SDS-PAGE and the bands were detected with streptavidin-HRP conjugate and ECL. […] The numbers represent uPAR precipitated by anti-α5β1 antibody as percent of total uPAR. The experiment was repeated 5 times using the same and additional anti-integrin and anti-uPAR antibodies with essentially similar results. FIG. 5B is a graph showing the disruption of uPAR and α5β1-integrin complex with peptides 240-248 and S245A. T-HEp3 cells were surface biotinylated and lysed as described in the Examples. The lysate was precleared with isotype-matched IgG and aliquots containing 0.8 mg protein were incubated with peptides 240-248 and S245A (5 μM and 20 μM) or without peptides (Control, C) for 20 min at 4° C. followed by IP with 5 μg of monoclonal anti-α5β1-integrin (HAS) antibody for 90 min. The immunoprecipitates were analyzed as in FIG. 5A and scanned with NIH Image. […]"}, "[3]": {"conditions": "25 μM peptide, 45 and 180 min, serum-starved"}, "[4]": {"conditions": "25 μM peptide, 10 min, serum-starved"}}, "data": [{"substance": "peptide 17-24: synthetic uPAR-derived peptide, domain I amino acid 17-24: CALGQDLC (SEQ ID NO:5); negative control [reference compound]", "values": [{"measurement": "P-ERK level", "setting": "[1]; [3]", "result": "minimal or no effect"}, {"measurement": "P-ERK level", "setting": "[1]; [4]", "result": "only a minor effect"}, {"measurement": "P-ERK level", "setting": "[1]; 5, 20 and 40 μM peptide, 1 hr", "result": "minor and inconsistent effects"}]}, {"substance": "peptide 240-248: synthetic uPAR-derived peptide, domain III residues 240-248: GCATASMCQ (SEQ ID NO:9)", "values": [{"measurement": "disruption of preformed uPAR/integrin complex", "setting": "[2]", "result": "disrupted"}, {"measurement": "P-ERK level", "setting": "[1]; [3]", "result": "strong reduction in P-ERK level"}, {"measurement": "P-ERK level", "setting": "[1]; [4]", "result": "only a minor effect"}, {"measurement": "P-ERK level", "setting": "[1]; 5, 20 and 40 μM peptide, 1 hr", "result": "reduced P-ERK level in a dose-dependent fashion"}]}]}
